The source of these data is patent US7459557B2, “Substituted isoindole-1,3-diones” (Janssen Pharmaceutica N.V., priority 2005, dated 2008).

Each structure is given as a SMILES string. Several values for one entry are separate records, joined by “and”; a condition that tells them apart may be missing. Equal entries are not always repeated.

The target in assay [1] is T1, α1b-AR (Homo sapiens, UniProt P35368).
T1 construct: expressed in transfected cells; host or cells: COS-7 (African Green monkey kidney) cell membranes
T1 sequence (P35368 1-520): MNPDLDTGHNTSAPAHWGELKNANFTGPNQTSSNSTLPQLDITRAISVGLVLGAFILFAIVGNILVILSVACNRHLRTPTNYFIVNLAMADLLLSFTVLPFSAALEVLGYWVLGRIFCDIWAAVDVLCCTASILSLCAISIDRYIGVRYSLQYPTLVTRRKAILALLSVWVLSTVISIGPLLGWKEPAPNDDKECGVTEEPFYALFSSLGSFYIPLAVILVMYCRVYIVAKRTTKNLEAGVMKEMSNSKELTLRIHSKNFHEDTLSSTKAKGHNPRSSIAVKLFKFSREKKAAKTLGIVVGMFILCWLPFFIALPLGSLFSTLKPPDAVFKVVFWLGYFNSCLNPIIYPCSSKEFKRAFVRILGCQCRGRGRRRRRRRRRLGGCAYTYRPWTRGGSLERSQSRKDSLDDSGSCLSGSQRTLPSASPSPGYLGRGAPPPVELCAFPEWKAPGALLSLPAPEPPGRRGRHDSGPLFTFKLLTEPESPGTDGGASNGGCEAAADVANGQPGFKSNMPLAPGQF
The assay is described as follows: α1-adrenergic receptor radio-ligand (125I-HEAT) binding assay, α1b subtype. The following applies: COS-7 cell membranes transfected with α1b subtype, 125I-HEAT 50 pM. The protocol:
(§1) α1-Adrenergic Receptor Binding Assay
(§2) Preparation of COS Cell Membranes
(§3) Membranes were prepared from COS-7 cells (African Green monkey kidney SV40-transformed cells) that had been transfected with one of the three α1-AR subtypes (Genbank accession number for the α1a subtype: AF013261; Genbank accession number for the α1b subtype: NM000679; Genbank accession number for the α1d subtype: NM000678) using the following method: COS cells from ten 100 mm tissue culture plates were scraped into a 5 mL volume of TE (a mixture of 50 mM Tris-HCl, 5 mM EDTA, pH 7.4). The cell suspension was disrupted with a Brinkman Polytron (at a setting of 8) for 10 sec. The disrupted cells were centrifuged at 1000×g for 10 min at 4° C. Supernatants were centrifuged at 34,500×g for 20 min at 4° C. The membrane pellets were suspended in a 2 mL volume of TNE (a mixture of 50 mM Tris-HCl, 5 mM EDTA and 150 mM NaCl at pH 7.4). An aliquot of the membrane suspension was stored at −70° C. until use. The protein concentration was determined using the BioRad “DC” protein assay kit following membrane solubilization with Triton X-100.
(§4) Radio-Ligand Binding Assay
Triplicate determinations of radio-ligand binding in the presence of increasing concentrations of testing compound were made. The reagents were added to 96-well polypropylene plate wells. Each assay well contained 140 μL TNE, 25 μL ^125I-2-(β-4-hydroxyphenyl)ethylaminomethyltetralone (^125I-HEAT) (specific activity 2200 Ci/mmol, Dupont-New England Nuclear, 50 pM final), 10 μL testing compound dissolved in dimethyl sulfoxide (DMSO) (1 pM to 10 μM in half-log increments, final), and 25 μL appropriate α1-AR membrane subtype suspension in TNE (0.5 ng/μL for the α1a and α1b subtypes and 13 ng/μL for the α1d subtype). The plate was incubated at rt for 1 hr. The contents of the wells were filtered through a glass filter (type C) (GF/C) membrane Unifilter plate (Packard Instruments) using the Packard Filtermate cell harvester. The filter plates were dried in a vacuum oven for 30 min at 40° C. 25 μL Microscint 20 liquid scintillation fluid (Packard Instuments) was added to each well. The radioactive content was analyzed in the TopCount microplate scintillation counter (Packard Instruments).
The Ki values (in nM) shown in Table 1 were determined using GraphPad Prism software.

Assay [2] concerns the target T2, α1a-AR (Homo sapiens, UniProt P35348).
T2 construct: expressed in transfected cells; host or cells: COS-7 (African Green monkey kidney) cell membranes
T2 sequence (P35348 1-455 isoform P35348-4): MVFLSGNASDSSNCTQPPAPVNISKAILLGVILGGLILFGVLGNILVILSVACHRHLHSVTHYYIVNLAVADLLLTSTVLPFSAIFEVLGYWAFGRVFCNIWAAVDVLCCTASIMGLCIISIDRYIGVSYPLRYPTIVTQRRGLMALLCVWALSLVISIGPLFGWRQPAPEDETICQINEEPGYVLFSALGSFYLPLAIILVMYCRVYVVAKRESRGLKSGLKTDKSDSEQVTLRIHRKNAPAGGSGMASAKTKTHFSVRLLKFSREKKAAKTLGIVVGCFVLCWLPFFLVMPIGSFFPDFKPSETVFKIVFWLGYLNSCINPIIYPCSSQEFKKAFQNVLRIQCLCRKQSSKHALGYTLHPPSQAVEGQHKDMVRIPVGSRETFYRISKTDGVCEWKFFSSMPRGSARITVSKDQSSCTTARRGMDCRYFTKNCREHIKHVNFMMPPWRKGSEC
The assay is described as follows: α1-adrenergic receptor radio-ligand (125I-HEAT) binding assay, α1a subtype. The settings on record: COS-7 cell membranes transfected with α1a subtype, 125I-HEAT 50 pM. The method, then: as §1, §2, §3, §4
(§5) Triplicate determinations of radio-ligand binding in the presence of increasing concentrations of testing compound were made. The reagents were added to 96-well polypropylene plate wells. […] The plate was incubated at rt for 1 hr. The contents of the wells were filtered through a glass filter (type C) (GF/C) membrane Unifilter plate (Packard Instruments) using the Packard Filtermate cell harvester. The filter plates were dried in a vacuum oven for 30 min at 40° C. 25 μL Microscint 20 liquid scintillation fluid (Packard Instuments) was added to each well. The radioactive content was analyzed in the TopCount microplate scintillation counter (Packard Instruments).

For assay [3], the target named is T3, α1d-AR (Homo sapiens, UniProt P25100).
T3 construct: expressed in transfected cells; host or cells: COS-7 (African Green monkey kidney) cell membranes
T3 sequence (P25100 1-572): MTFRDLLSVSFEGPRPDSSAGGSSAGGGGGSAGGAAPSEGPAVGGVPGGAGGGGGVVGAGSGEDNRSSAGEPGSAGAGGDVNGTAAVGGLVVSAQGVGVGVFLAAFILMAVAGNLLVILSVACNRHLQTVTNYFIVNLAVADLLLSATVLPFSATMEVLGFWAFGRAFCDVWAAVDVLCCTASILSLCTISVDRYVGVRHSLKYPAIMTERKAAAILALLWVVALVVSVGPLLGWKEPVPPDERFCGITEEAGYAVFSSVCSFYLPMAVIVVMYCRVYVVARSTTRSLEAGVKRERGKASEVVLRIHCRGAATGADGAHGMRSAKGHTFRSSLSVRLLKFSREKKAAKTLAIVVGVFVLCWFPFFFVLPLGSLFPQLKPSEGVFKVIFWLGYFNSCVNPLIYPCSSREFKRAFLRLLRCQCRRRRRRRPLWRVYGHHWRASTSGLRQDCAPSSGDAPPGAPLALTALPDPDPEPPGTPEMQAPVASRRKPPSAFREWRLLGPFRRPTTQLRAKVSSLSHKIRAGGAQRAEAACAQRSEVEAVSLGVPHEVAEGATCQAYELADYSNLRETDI
The assay is described as follows: α1-adrenergic receptor radio-ligand (125I-HEAT) binding assay, α1d subtype. The settings on record: COS-7 cell membranes transfected with α1d subtype, 125I-HEAT 50 pM. The method, then: as §1, §2, §3, §4, §5

For assay [4], the system named is α1a and α1d subtypes over the α1b subtype. The settings on record: cited from earlier work.

`CC(C)Oc1ccccc1N1CCN(C2CCC(N3C(=O)c4c(F)c(F)c(F)c(F)c4C3=O)CC2)CC1` (mixture of isomers) [Cpd 1, 4,5,6,7-tetrafluoro-2-{4-[4-(2-isopropoxy-phenyl)-piperazin-1-yl]-cyclohexyl}-isoindole-1,3-dione]: the Ki (as a rule, a dissociation constant, usually derived from enzyme kinetics or from competition with a known ligand) in assay [1] worked out at 4110 nM; in assay [2], 37.8 nM; in assay [3], 30.2 nM.

Consider `CC(C)Oc1ccccc1N1CCN(C2CCC(N3C(=O)c4cc(Cl)c(Cl)cc4C3=O)CC2)CC1` (mixture of isomers) [Cpd 2, 5,6-dichloro-2-{4-[4-(2-isopropoxy-phenyl)-piperazin-1-yl]-cyclohexyl}-isoindole-1,3-dione], for which the Ki in assay [1] came to 1080 nM; in assay [2], 2.69 nM; in assay [3] it was 0.31 nM.

Turning to `CC(C)Oc1ccccc1N1CCN(C2CCC(N3C(=O)c4cccnc4C3=O)CC2)CC1` (mixture of isomers) [Cpd 5, 6-{4-[4-(2-isopropoxy-phenyl)-piperazin-1-yl]-cyclohexyl}-pyrrolo[3,4-b]pyridine-5,7-dione], the Ki came to 44.6 nM in assay [1], 0.75 nM in assay [2] and 1.45 nM in assay [3].

On to `CC(C)Oc1ccccc1N1CCN(C2CCC(N3C(=O)c4ccncc4C3=O)CC2)CC1` (mixture of isomers) [Cpd 6, 2-{4-[4-(2-isopropoxy-phenyl)-piperazin-1-yl]-cyclohexyl}-pyrrolo[3,4-c]pyridine-1,3-dione], for which the Ki in assay [1] is 22.4 nM; in assay [2], 0.43 nM; in assay [3] it was 0.77 nM.

Consider `CC(C)Oc1ccccc1N1CCN(C2CCC(N3C(=O)c4ccc5ccccc5c4C3=O)CC2)CC1` (mixture of isomers) [Cpd 7, 2-{4-[4-(2-isopropoxy-phenyl)-piperazin-1-yl]-cyclohexyl}-benzo[e]isoindole-1,3-dione], for which the Ki was 16 nM and 14 nM in assay [1]; 0.58 nM and 3 nM in assay [2]; 0.27 nM and 0.13 nM in assay [3].

Consider `CC(C)Oc1ccccc1N1CCN([C@H]2CC[C@H](N3C(=O)c4cccc(F)c4C3=O)CC2)CC1` [Cpd 3, 4-fluoro-r-2-{t-4-[4-(2-isopropoxy-phenyl)-piperazin-1-yl]-cyclohexyl}-isoindole-1,3-dione], for which the inhibitory constant (Ki) in assay [1] was found to be 17.9 nM; in assay [2], 0.2 nM; in assay [3], 0.09 nM.

For `CC(C)Oc1ccccc1N1CCN([C@H]2CC[C@@H](N3C(=O)c4cccc(F)c4C3=O)CC2)CC1` [Cpd 4, 4-fluoro-r-2-{c-4-[4-(2-isopropoxy-phenyl)-piperazin-1-yl]-cyclohexyl}-isoindole-1,3-dione], the inhibitory constant (Ki) in assay [1] is 164 nM and 129 nM and 88 nM; in assay [2], 0.873 nM and 1.1 nM and 0.95 nM; in assay [3] it was 3.24 nM and 13.5 nM and 28 nM.

For `CC(C)Oc1ccccc1N1CCN([C@H]2CC[C@@H](N3C(=O)c4ccc5ccc(F)cc5c4C3=O)CC2)CC1` [Cpd 8, 8-fluoro-r-2-{c-4-[4-(2-isopropoxy-phenyl)-piperazin-1-yl]-cyclohexyl}-benzo[e]isoindole-1,3-dione], the Ki came to 269 nM in assay [1], 15 nM in assay [2] and 16.4 nM in assay [3].

On to `CC(C)Oc1ccccc1N1CCN([C@H]2CC[C@H](N3C(=O)c4ccc5ccc(F)cc5c4C3=O)CC2)CC1` [Cpd 9, 8-fluoro-r-2-{t-4-[4-(2-isopropoxy-phenyl)-piperazin-1-yl]-cyclohexyl}-benzo[e]isoindole-1,3-dione], for which the Ki in assay [1] is 35 nM and 58 nM; in assay [2], 1.9 nM and 5.9 nM; in assay [3] it was 0.61 nM and 0.3 nM.

`CCOc1ccccc1OCCN[C@H](C)Cc1ccc(OC)c(S(N)(=O)=O)c1` [Tamsulosin]: the “selectivity for the α1a and α1d subtypes over the α1b subtype” value in assay [4] is “about 15 fold”.
